Assay results from patent US6930203B2, “Gelling agents or thickeners” (Applied NanoSystems B.V., priority 2001, dated 2005).
Each block holds one compound with its values, some of them ahead of it.

Experiment: Solvent scope of N,N′-dialkylaldaramides (1%) or N,N′-dialkylpentaramides (1%): gelation/solubility behaviour in solvents
Type: physicochemical
Design: key: g = gelation; s = soluble; p = precipitates; c = crystallizes; ns = not soluble; v = viscous; g* = unstable gel, precipitates; cg = crystalline gel
Details: 1% gelling agent
Description: It will be understood that the use of the present gelling agents or thickeners to prepare a gel or to thicken a composition is also encompassed by the invention. As is well known, gelling behavior of compounds or compositions is highly unpredictable. […] Preferably, the gelling phenomenon is thermo reversible.
Preferred examples include aromatic and nonaromatic hydrocarbons, alcohols, ethers, esters, aldehydes, alkanoic acids, epoxides, amines, halogenated hydrocarbons, silicon oils, vegetable oils, phosphoric esters, sulfoxides, water and mixtures thereof. In order to obtain a gel, the gelling agent or thickener is preferably mixed with the composition to be transformed to a gel in an amount of between 0.01 and 50 wt. %, based on the weight of the composition. In a preferred embodiment, the mixture of the gelling agent or thickener and the composition is heated to allow for an even better gel formation or thickening. Typically, the heating will involve raising the temperature of the mixture to about 30-175° C. until a clear solution is obtained. In an alternative embodiment, the gelling agent is first dissolved in a polar or apolar solvent and then added to or sprayed into a composition or solvent to be converted into a gel.
Solvent scope of N,N′-dialkylaldaramides (1%) or N,N′-dialkylpentaramides (1%) 1-24 refers to the compounds prepared in Examples 1-23)

Compound: CCCCNC(=O)[C@@H](O)[C@@H](O)[C@H](O)[C@@H](O)C(=O)NCCCC [Example 1, dibutyl D-glucaramicle]
- Gelation/solubility behaviour in 1,2-dichloroethane: ns
- Gelation/solubility behaviour in Cyclohexane: ns
- Gelation/solubility behaviour in Hexadecane: ns
- Gelation/solubility behaviour in Toluene: ns
- Gelation/solubility behaviour in Water: ns
- Gelation/solubility behaviour in n-butylacetate: ns
- Gelation/solubility behaviour in p-xylene: ns

Compound: CCCCCCCCCCCCNC(=O)[C@@H](O)[C@@H](O)[C@H](O)[C@H](O)C(=O)NCCCCCCCCCCCC [Example 13, didodecyl D-mannaramide]
- Gelation/solubility behaviour in 1,2-dichloroethane: c
- Gelation/solubility behaviour in 2-octanol: p
- Gelation/solubility behaviour in 2-propanol: c
- Gelation/solubility behaviour in Cyclohexane: ns
- Gelation/solubility behaviour in Dimethylsulfoxide: c
- Gelation/solubility behaviour in Ethanol: ns
- Gelation/solubility behaviour in Hexadecane: ns
- Gelation/solubility behaviour in Toluene: ns
- Gelation/solubility behaviour in Water: ns
- Gelation/solubility behaviour in n-butylacetate: ns
- Gelation/solubility behaviour in p-xylene: ns

Compound: O=C(NC1CCCCC1)[C@@H](O)[C@@H](O)[C@@H](O)C(=O)NC1CCCCC1 [Example 4, dicyclohexyl D-ribaramide]
- Gelation/solubility behaviour in 1,2-dichloroethane: s
- Gelation/solubility behaviour in 2-octanol: p
- Gelation/solubility behaviour in 2-propanol: p
- Gelation/solubility behaviour in Cyclohexane: ns
- Gelation/solubility behaviour in Dimethylsulfoxide: s
- Gelation/solubility behaviour in Ethanol: s
- Gelation/solubility behaviour in Hexadecane: ns
- Gelation/solubility behaviour in Toluene: p
- Gelation/solubility behaviour in Water: ns
- Gelation/solubility behaviour in n-butylacetate: p
- Gelation/solubility behaviour in p-xylene: p

Compound: CO[C@@H]([C@H](O)[C@H](O)C(=O)NC1CCCCC1)[C@@H](O)C(=O)NC1CCCCC1 [Example 20, 3-O-methyl-dicyclohexyl D-glucaramide]
- Gelation/solubility behaviour in 1,2-dichloroethane: c
- Gelation/solubility behaviour in 2-octanol: p
- Gelation/solubility behaviour in 2-propanol: c
- Gelation/solubility behaviour in Cyclohexane: ns
- Gelation/solubility behaviour in Dimethylsulfoxide: s
- Gelation/solubility behaviour in Ethanol: c
- Gelation/solubility behaviour in Hexadecane: ns
- Gelation/solubility behaviour in Toluene: p
- Gelation/solubility behaviour in Water: ns
- Gelation/solubility behaviour in n-butylacetate: p
- Gelation/solubility behaviour in p-xylene: p

Compound: CCCCCCCC/C=C\CCCCCCCCNC(=O)[C@@H](O)[C@@H](O)[C@H](O)[C@@H](O)C(=O)NCCCCCCCC/C=C\CCCCCCCC [Example 19, dioleyl D-glucaramide]
- Gelation/solubility behaviour in 1,2-dichloroethane: c
- Gelation/solubility behaviour in 2-octanol: c
- Gelation/solubility behaviour in 2-propanol: c
- Gelation/solubility behaviour in Cyclohexane: p
- Gelation/solubility behaviour in Dimethylsulfoxide: c
- Gelation/solubility behaviour in Ethanol: c
- Gelation/solubility behaviour in Hexadecane: p
- Gelation/solubility behaviour in Toluene: p
- Gelation/solubility behaviour in Water: ns
- Gelation/solubility behaviour in n-butylacetate: c
- Gelation/solubility behaviour in p-xylene: p

Compound: CCCCNC(=O)[C@@H](O)[C@H](O)[C@H](O)[C@@H](O)C(=O)NCCCC [Example 3, dibutyl galactaramide]
- Gelation/solubility behaviour in 1,2-dichloroethane: ns
- Gelation/solubility behaviour in 2-octanol: ns
- Gelation/solubility behaviour in 2-propanol: c
- Gelation/solubility behaviour in Cyclohexane: ns
- Gelation/solubility behaviour in Dimethylsulfoxide: s
- Gelation/solubility behaviour in Ethanol: c
- Gelation/solubility behaviour in Hexadecane: ns
- Gelation/solubility behaviour in Toluene: ns
- Gelation/solubility behaviour in Water: ns
- Gelation/solubility behaviour in n-butylacetate: ns
- Gelation/solubility behaviour in p-xylene: ns

Compound: CCCCCCCCNC(=O)[C@@H](O)[C@@H](O)[C@H](O)[C@H](O)C(=O)NCCCCCCCC [Example 9, dioctyl D-mannaramide]
- Gelation/solubility behaviour in 1,2-dichloroethane: ns
- Gelation/solubility behaviour in 2-octanol: ns
- Gelation/solubility behaviour in 2-propanol: c
- Gelation/solubility behaviour in Cyclohexane: ns
- Gelation/solubility behaviour in Dimethylsulfoxide: c
- Gelation/solubility behaviour in Ethanol: c
- Gelation/solubility behaviour in Hexadecane: ns
- Gelation/solubility behaviour in Toluene: ns
- Gelation/solubility behaviour in Water: ns
- Gelation/solubility behaviour in n-butylacetate: ns
- Gelation/solubility behaviour in p-xylene: ns

Compound: O=C(NC1CCCCC1)[C@@H](O)[C@@H](O)[C@H](O)[C@@H](O)C(=O)NC1CCCCCCCCCCC1 [Example 23, N1-cyclododecyl, N6-cyclohexyl D-glucaramide]
- Gelation/solubility behaviour in 2-methoxyethanol (2-methoxyethanol): p
- Gelation/solubility behaviour in Cyclohexane: p
- Gelation/solubility behaviour in methyl benzoic acid (methyl benzoic acid): p
- Gelation/solubility behaviour in methyl laurate (methyl laurate): p
- Gelation/solubility behaviour in n-butylacetate: p
- Gelation/solubility behaviour in p-xylene: p
- Gelation/solubility behaviour in silicon oil (silicon oil): v

Second part, the compound after the results:

- Gelation/solubility behaviour in 1,2-dichloroethane: ns
- Gelation/solubility behaviour in 2-octanol: ns
- Gelation/solubility behaviour in 2-propanol: ns
- Gelation/solubility behaviour in Cyclohexane: ns
- Gelation/solubility behaviour in Dimethylsulfoxide: s
- Gelation/solubility behaviour in Ethanol: c
- Gelation/solubility behaviour in Hexadecane: ns
- Gelation/solubility behaviour in Toluene: ns
- Gelation/solubility behaviour in Water: ns
- Gelation/solubility behaviour in n-butylacetate: ns
- Gelation/solubility behaviour in p-xylene: ns
Compound: CCCCCCCCNC(=O)[C@@H](O)[C@H](O)[C@H](O)[C@@H](O)C(=O)NCCCCCCCC [Example 10, dioctyl galactaramide]

- Gelation/solubility behaviour in 1,2-dichloroethane: ns
- Gelation/solubility behaviour in 2-octanol: ns
- Gelation/solubility behaviour in 2-propanol: c
- Gelation/solubility behaviour in Cyclohexane: ns
- Gelation/solubility behaviour in Dimethylsulfoxide: c
- Gelation/solubility behaviour in Ethanol: c
- Gelation/solubility behaviour in Hexadecane: ns
- Gelation/solubility behaviour in Toluene: ns
- Gelation/solubility behaviour in Water: ns
- Gelation/solubility behaviour in n-butylacetate: ns
- Gelation/solubility behaviour in p-xylene: ns
Compound: dicyclohexyl galactaramide [Example 7]

- Gelation/solubility behaviour in 1,2-dichloroethane: ns
- Gelation/solubility behaviour in 2-octanol: ns
- Gelation/solubility behaviour in 2-propanol: c
- Gelation/solubility behaviour in Cyclohexane: ns
- Gelation/solubility behaviour in Dimethylsulfoxide: s
- Gelation/solubility behaviour in Ethanol: c
- Gelation/solubility behaviour in Hexadecane: ns
- Gelation/solubility behaviour in Toluene: ns
- Gelation/solubility behaviour in Water: ns
- Gelation/solubility behaviour in n-butylacetate: ns
- Gelation/solubility behaviour in p-xylene: ns
Compound: CCCCCCCCNC(=O)[C@@H](O)[C@@H](O)[C@H](O)[C@@H](O)C(=O)NCCCCCCCC [Example 8, dioctyl D-glucaramide]

- Gelation/solubility behaviour in 1,2-dichloroethane: Ns
- Gelation/solubility behaviour in 2-octanol: Ns
- Gelation/solubility behaviour in Cyclohexane: Ns
- Gelation/solubility behaviour in Hexadecane: Ns
- Gelation/solubility behaviour in Toluene: Ns
- Gelation/solubility behaviour in Water: Ns
- Gelation/solubility behaviour in n-butylacetate: Ns
- Gelation/solubility behaviour in p-xylene: Ns
Compound: CCCCNC(=O)[C@@H](O)[C@@H](O)[C@H](O)[C@H](O)C(=O)NCCCC [Example 2, dibutyl D-mannaramide]
